This is an account of results in ChEMBL document CHEMBL1150510 (Bioorg Med Chem Lett, 1997).

Molecules are shown by their SMILES. pKi: −log10 of the molar value.

Assay [1] concerns Mus musculus. Briefly: In vivo minimum effective dose of compound to block the apomorphine-induced climbing behavior in mice after peroral administration. Format: functional.
For assay [2], the target named is Muscarinic acetylcholine receptor. Briefly: In vitro binding affinity of compound against muscarinic neuronal receptor. Format: protein assay.
The target of another assay is Adrenergic receptor beta (Homo sapiens, UniProt P08588+P07550+P13945). Briefly: In vitro binding affinity of compound against neuronal Beta adrenergic receptor. Format: protein assay.
The target in assay [3] is GABA-A receptor; anion channel. Briefly: In vitro binding affinity for neuronal GABA-A benzodiazepine receptor. Type of assay: protein-complex assay.
Assay [4] concerns the target GABA-A receptor; anion channel. Briefly: In vitro binding affinity for neuronal GABA-A receptor. Format: protein-complex assay.
The target of assay [5] is Serotonin 2 (5-HT2) receptor (Homo sapiens, UniProt P41595+P28223+P28335). Briefly: In vitro binding affinity of compound against neuronal 5-hydroxytryptamine 2 receptor. Format: protein assay.
The target in the next assay is D(2) dopamine receptor (Homo sapiens, UniProt P14416). Briefly: In vitro binding affinity of compound against neuronal Dopamine receptor D2.
For another assay, the target named is Histamine H1 receptor (Homo sapiens, UniProt P35367). Briefly: In vitro binding affinity of compound against histamine H1 neuronal receptor.
The target of assay [6] is T1, Adrenergic receptor alpha-1 (Homo sapiens, UniProt P35348+P25100+P35368).
T1 sequence (P35348 whole entry): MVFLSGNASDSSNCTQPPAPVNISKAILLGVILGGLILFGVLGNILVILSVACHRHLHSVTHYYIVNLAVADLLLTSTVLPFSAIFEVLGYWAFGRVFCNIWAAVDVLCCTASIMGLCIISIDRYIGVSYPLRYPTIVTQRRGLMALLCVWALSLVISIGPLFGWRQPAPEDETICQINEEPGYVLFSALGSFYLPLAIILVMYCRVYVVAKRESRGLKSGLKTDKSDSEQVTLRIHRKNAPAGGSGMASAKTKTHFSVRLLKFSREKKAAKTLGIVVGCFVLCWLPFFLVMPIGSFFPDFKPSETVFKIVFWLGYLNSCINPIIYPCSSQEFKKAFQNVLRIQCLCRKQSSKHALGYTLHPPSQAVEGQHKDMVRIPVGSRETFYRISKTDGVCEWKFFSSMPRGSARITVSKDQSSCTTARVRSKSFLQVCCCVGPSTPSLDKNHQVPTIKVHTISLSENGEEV
T1 sequence (P25100 whole entry): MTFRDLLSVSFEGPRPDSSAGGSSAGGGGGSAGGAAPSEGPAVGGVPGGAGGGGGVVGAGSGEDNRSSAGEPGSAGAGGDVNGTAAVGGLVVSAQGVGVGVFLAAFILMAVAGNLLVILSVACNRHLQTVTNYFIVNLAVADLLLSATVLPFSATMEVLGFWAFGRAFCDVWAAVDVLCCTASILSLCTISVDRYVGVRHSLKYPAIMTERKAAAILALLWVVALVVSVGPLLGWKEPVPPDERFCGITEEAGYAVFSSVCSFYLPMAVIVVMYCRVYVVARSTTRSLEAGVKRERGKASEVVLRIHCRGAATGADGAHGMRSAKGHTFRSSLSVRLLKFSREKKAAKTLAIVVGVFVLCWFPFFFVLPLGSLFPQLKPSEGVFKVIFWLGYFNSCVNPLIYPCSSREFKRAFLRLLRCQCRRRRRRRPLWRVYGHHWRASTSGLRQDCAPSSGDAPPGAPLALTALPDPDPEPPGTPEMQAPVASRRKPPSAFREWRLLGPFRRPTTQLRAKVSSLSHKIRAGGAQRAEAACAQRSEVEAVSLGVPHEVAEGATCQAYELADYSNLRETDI
T1 sequence (P35368 whole entry): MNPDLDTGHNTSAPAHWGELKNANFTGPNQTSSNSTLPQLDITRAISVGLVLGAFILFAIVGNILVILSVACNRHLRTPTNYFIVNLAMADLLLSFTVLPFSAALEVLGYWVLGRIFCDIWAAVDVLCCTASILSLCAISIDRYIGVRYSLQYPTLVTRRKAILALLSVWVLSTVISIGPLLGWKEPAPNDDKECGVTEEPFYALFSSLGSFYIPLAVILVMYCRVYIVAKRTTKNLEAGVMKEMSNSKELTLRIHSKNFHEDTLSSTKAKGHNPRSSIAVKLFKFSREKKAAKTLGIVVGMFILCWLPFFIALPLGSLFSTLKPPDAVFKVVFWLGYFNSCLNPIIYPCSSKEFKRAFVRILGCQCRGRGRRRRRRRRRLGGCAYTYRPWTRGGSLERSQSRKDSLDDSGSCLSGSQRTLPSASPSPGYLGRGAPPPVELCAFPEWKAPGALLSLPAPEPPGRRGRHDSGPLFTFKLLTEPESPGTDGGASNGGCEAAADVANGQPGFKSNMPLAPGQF
Briefly: In vitro binding affinity of compound against Alpha-1 adrenergic receptor. Format: protein assay.

The target in a further assay is D(1A) dopamine receptor (Homo sapiens, UniProt P21728). Briefly: In vitro binding affinity of compound against dopamine neuronal Dopamine receptor D1.
For assay [7], the target named is T2, Adrenergic receptor alpha-2 (Homo sapiens, UniProt P08913+P18825+P18089).
T2 sequence (P08913 whole entry): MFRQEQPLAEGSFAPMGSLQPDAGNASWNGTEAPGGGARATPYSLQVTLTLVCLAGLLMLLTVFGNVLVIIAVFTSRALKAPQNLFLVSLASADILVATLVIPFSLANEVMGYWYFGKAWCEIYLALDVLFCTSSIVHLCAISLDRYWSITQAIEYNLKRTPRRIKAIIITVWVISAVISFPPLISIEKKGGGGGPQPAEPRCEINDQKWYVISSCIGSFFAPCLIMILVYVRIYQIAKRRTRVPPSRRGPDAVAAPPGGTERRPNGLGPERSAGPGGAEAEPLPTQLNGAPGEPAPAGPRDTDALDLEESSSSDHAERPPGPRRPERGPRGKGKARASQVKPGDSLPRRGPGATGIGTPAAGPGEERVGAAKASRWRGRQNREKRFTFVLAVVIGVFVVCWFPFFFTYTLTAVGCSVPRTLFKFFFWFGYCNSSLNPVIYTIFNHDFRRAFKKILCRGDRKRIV
T2 sequence (P18825 whole entry): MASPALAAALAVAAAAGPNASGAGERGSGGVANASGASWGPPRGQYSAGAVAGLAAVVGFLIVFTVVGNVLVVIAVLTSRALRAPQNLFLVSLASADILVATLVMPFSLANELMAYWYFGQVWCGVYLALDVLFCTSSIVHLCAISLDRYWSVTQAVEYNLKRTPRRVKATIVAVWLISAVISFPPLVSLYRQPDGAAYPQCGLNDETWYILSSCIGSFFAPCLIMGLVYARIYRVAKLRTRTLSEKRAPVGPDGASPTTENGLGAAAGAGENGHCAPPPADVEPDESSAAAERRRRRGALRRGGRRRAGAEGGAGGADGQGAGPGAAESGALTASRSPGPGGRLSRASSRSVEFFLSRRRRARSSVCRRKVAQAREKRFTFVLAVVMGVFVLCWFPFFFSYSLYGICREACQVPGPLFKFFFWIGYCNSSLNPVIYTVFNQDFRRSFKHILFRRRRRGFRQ
T2 sequence (P18089 whole entry): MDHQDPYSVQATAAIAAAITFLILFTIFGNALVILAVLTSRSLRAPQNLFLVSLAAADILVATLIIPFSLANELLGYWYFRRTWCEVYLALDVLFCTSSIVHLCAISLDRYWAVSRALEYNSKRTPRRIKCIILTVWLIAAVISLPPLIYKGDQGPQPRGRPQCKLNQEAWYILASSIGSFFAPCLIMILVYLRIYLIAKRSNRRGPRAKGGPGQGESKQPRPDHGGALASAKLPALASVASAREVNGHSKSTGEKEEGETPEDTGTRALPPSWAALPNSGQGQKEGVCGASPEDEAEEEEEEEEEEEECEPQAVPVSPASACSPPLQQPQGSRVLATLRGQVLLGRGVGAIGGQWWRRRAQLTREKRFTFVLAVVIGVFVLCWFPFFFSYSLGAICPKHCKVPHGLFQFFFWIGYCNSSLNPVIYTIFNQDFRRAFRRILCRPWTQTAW
Briefly: In vitro binding affinity of compound against neuronal alpha-2 adrenergic receptor. Type of assay: protein assay.

In assay [8] the test system is Rattus norvegicus. Briefly: In vivo minimum effective dose of compound to block the conditioned avoidance behavior in rats after intravenous administration. Format: functional.
Assay [9] relates to Rattus norvegicus. Briefly: In vivo minimum effective dose of compound to block the conditioned avoidance behavior in rats after peroral administration. Type of assay: functional.
The test system of assay [10] is Mus musculus. Briefly: In vivo minimum effective dose of compound to block the apomorphine-induced climbing behavior in mice after subcutaneous administration. Format: functional.
Assay [11] has as its system Mus musculus. Briefly: In vivo minimum effective dose of compound to block the apomorphine-induced climbing behavior in mice after intravenous administration. Type of assay: functional.

Histamine H1 receptor, sequence (P35367 whole entry): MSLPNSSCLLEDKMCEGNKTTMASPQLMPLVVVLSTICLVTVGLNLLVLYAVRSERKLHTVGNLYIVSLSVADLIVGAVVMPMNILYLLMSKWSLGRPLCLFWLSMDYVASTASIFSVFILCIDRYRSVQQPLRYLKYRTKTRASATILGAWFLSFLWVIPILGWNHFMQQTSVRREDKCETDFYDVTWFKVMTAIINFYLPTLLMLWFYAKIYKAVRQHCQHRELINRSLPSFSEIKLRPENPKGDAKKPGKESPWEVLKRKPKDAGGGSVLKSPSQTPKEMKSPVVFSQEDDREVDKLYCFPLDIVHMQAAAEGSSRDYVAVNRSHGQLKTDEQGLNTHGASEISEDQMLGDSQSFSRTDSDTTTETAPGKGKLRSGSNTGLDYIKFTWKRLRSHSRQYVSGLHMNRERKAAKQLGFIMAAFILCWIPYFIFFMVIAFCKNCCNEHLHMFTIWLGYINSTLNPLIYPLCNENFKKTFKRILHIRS
D(1A) dopamine receptor, sequence (P21728 whole entry): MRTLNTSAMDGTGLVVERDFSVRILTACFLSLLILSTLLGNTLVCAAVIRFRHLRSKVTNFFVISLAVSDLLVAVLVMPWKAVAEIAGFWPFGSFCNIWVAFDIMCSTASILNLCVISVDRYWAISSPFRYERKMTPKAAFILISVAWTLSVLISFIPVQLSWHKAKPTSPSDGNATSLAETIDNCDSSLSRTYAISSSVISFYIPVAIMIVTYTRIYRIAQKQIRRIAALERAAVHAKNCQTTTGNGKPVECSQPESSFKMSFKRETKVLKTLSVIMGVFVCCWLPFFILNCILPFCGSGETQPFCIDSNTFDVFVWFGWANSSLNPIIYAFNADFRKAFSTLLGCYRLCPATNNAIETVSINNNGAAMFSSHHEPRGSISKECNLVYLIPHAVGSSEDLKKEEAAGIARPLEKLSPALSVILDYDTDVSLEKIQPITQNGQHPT
D(2) dopamine receptor, sequence (P14416 whole entry): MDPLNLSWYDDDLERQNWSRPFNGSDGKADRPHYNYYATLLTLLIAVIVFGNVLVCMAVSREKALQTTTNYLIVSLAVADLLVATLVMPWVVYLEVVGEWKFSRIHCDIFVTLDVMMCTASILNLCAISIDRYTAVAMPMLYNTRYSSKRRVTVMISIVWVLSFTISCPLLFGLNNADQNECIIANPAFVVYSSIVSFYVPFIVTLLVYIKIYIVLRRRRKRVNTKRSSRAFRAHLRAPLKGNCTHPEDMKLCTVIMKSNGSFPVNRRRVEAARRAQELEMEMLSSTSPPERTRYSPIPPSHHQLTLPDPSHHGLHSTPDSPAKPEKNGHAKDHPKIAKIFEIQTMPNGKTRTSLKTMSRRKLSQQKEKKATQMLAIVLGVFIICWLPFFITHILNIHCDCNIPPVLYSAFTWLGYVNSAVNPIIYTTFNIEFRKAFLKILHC

For orientation: Ki means a dissociation constant, usually derived from enzyme kinetics or from competition with a known ligand. Lower therefore signals higher affinity. A word on the pKi: it is the negative decadic logarithm of the Ki, by convention in mol/L. On to `CN1CCN(C2=Nc3ccccc3Nc3sc(CO)cc32)CC1`, for which, in the assay on Mus musculus [1], the EDmin stood at 20 mg/kg. In addition, the Ki is 501 nM in assay [2]; > 10000 nM at Adrenergic receptor beta; 18 nM in [5]; 12 nM in assay [6]; 783 nM in assay [7]. Also, the pKi was < 6.00 in assay [3]; < 5.00 in assay [4]; 7.66 at D(2) dopamine receptor; 8.22 on Histamine H1 receptor; 7.18 at D(1A) dopamine receptor.
`Cc1cc2c(s1)Nc1ccccc1N=C2N1CC[N+](C)([O-])CC1`: the Ki in assay [2] is 662 nM; on Adrenergic receptor beta, > 10000 nM; in assay [5], 112 nM; in assay [6], 266 nM; in assay [7], > 10000 nM. In addition, the EDmin in the assay with Rattus norvegicus [8] was >4 mg/kg; in the assay with Rattus norvegicus [9] it was >25 mg/kg; with Mus musculus [10], 12.5 mg/kg; in the assay on Mus musculus [11], >10 mg/kg. The pKi in [3] was < 5.00; in assay [4] it was < 5.00; at D(2) dopamine receptor, 6.92; at Histamine H1 receptor it was 7.06; at D(1A) dopamine receptor, 6.40.
On to `Cc1cc2c(s1)Nc1ccccc1N=C2N1CCNCC1` [DESMETHYLOLANZAPINE], for which the Ki was 333 nM in assay [2]; > 10000 nM on Adrenergic receptor beta; 23 nM in [5]; 80 nM in assay [6]; 1000 nM in [7]. Further, the EDmin is >4 mg/kg in the assay on Rattus norvegicus [8], >25 mg/kg in the assay on Rattus norvegicus [9], 50 mg/kg in the assay with Mus musculus [10] and >10 mg/kg with Mus musculus [11]. Further, the pKi in assay [3] is < 5.00; in [4], < 5.00; on D(2) dopamine receptor it was 8.05; at Histamine H1 receptor it was 7.66; on D(1A) dopamine receptor, 6.69.
In the case of `Cc1cc2c(s1)Nc1ccccc1N=C2N1CCN(C)CC1` [OLANZAPINE], the EDmin was determined as 2.5 mg/kg in the assay on Mus musculus [1]; 0.25 mg/kg in the assay with Rattus norvegicus [8]; 2.5 mg/kg in the assay with Rattus norvegicus [9]; 0.625 mg/kg in the assay with Mus musculus [10]; 1 mg/kg in the assay on Mus musculus [11]. Further, the pKi in [3] and in [4] was < 5.00 in each case.
